Measurements published in patent US8497278B2, “Imidazo[1,2-a]pyridine compounds” (priority 2008, dated 2013).

system: central benzodiazepine receptors; test: Central benzodiazepine receptor binding (test of Speth et al.); settings: 1000 nM of the compound
Experimental: Compounds of the invention were assessed for their binding to the benzodiazepine receptor by the test of Speth et al. [Life Sci. 24, 351 (1979)] for central benzodiazepine receptors and LeFur et al. [Life Sci. 33, 449 (1983)] for peripheral receptors. The compounds were tested first at 1.0E-09, 1.0E-07 and 1.0E-05 M in single determination. […] The specific ligand binding to the receptor is defined as the difference between the total binding and the nonspecific binding determined in the presence of an excess of unlabelled ligand. In each experiment, the respective reference compound was tested concurrently with the test compounds in order to assess the assay suitability. It was tested at several concentrations (for IC50 value determination), and the data were compared with historical values. The assay was rendered valid if suitability criteria were met.
BZD central binding data for the compounds is provided in Table 3, wherein is provided the percent inhibition of central BZD in the presence of 1000 nM of the compound.

Row | Compound | % Inhibition at 1000 nM for CBZD
1 | Cc1ccc(-c2nc3ccc(C)cn3c2Cn2ccnc2)cc1 [Compound 1, 3-((1H-imidazol-1-yl)methyl)-6-methyl-2-p-tolylimidazo[1,2-a]pyridine] | ++ (percentage of inhibition of central BZD site binding is greater than 80% in the presence of 1000 nM of the compound)
2 | Cc1ccc(-c2nc3ccc(C)cn3c2Cn2cnc(Cl)c2Cl)cc1 [Compound 3, 3-((4,5-Dichloro-1H-imidazol-1-yl)methyl)-6-methyl-2-p-tolylH-imidazo[1,2-a]pyridine] | + (percentage of inhibition of central BZD site binding is greater than 50% but less than 80% in the presence of 1000 nM of the compound)
3 | Cc1ccc(-c2nc3ccc(C)cn3c2Cn2ccnc2C(C)C)cc1 [Compound 5, 3-((2-Isopropyl-1H-imidazol-1-yl)methyl)-6-methyl-2-p-tolylH-imidazo[1,2-a]pyridine] | ++ (percentage of inhibition of central BZD site binding is greater than 80% in the presence of 1000 nM of the compound)
4 | COC(=O)c1ncnn1Cc1c(-c2ccc(C)cc2)nc2ccc(C)cn12 [Compound 10, 2-(6-Methyl-2-p-tolyl-imidazo[1,2-a]pyridin-3-ylmethyl)-2H-[1,2,4]triazole-3-carboxylic acid methyl ester] | ++ (percentage of inhibition of central BZD site binding is greater than 80% in the presence of 1000 nM of the compound)
5 | COC(=O)c1ncn(Cc2c(-c3ccc(C)cc3)nc3ccc(C)cn23)n1 [Compound 11, 1-(6-Methyl-2-p-tolyl-imidazo[1,2-a]pyridin-3-ylmethyl)-1H-[1,2,4]triazole-3-carboxylic acid methyl ester] | ++ (percentage of inhibition of central BZD site binding is greater than 80% in the presence of 1000 nM of the compound)
6 | CCOC(=O)c1nccn1Cc1c(-c2ccc(C)cc2)nc2ccc(C)cn12 [Compound 12, 1-(6-Methyl-2-p-tolyl-imidazo[1,2-a]pyridin-3-ylmethyl)-1H-imidazole-2-carboxylic acid ethyl ester] | ++ (percentage of inhibition of central BZD site binding is greater than 80% in the presence of 1000 nM of the compound)
7 | Cc1ccc(-c2nc3ccc(C)cn3c2Cn2ccnc2-c2ccccc2)cc1 [Compound 13, 6-Methyl-3-((2-phenyl-1H-imidazol-1-yl)methyl)-2-p-tolylH-imidazo[1,2-a]pyridine] | + (percentage of inhibition of central BZD site binding is greater than 50% but less than 80% in the presence of 1000 nM of the compound)
8 | Cc1ccc(-c2nc3ccc(C)cn3c2Cn2c(C)nc3ccccc32)cc1 [Compound 14, 2-Methyl-1-((6-methyl-2-p-tolylH-imidazo[1,2-a]pyridin-3-yl)methyl)-1H-benzo[d]imidazole] | − (percentage of inhibition of central BZD site binding is less than 50% in the presence of 1000 nM of the compound)
9 | Cc1ccc(-c2nc3ccc(C)cn3c2Cn2cnc3ccccc32)cc1 [Compound 16, 1-((6-Methyl-2-p-tolyl-H-imidazo[1,2-a]pyridin-3-yl)methyl)-1H-benzo[d]imidazole] | ++ (percentage of inhibition of central BZD site binding is greater than 80% in the presence of 1000 nM of the compound)
10 | Clc1ccc(-c2nc3ccc(Cl)cn3c2Cn2cncn2)cc1 [Compound 18, 3-((1H-1,2,4-triazol-1-yl)methyl)-6-chloro-2-(4-chlorophenyl)H-imidazo[1,2-a]pyridine] | ++ (percentage of inhibition of central BZD site binding is greater than 80% in the presence of 1000 nM of the compound)
11 | CCOC(=O)c1nccn1Cc1c(-c2ccc(Cl)cc2)nc2ccc(Cl)cn12 [Compound 22, 1-[6-Chloro-2-(4-chloro-phenyl)-imidazo[1,2-a]pyridin-3-ylmethyl]-1H-imidazole-2-carboxylic acid ethyl ester] | ++ (percentage of inhibition of central BZD site binding is greater than 80% in the presence of 1000 nM of the compound)
12 | COC(=O)c1ncnn1Cc1c(-c2ccc(Cl)cc2)nc2ccccn12 [Compound 24, 2-[2-(4-Chloro-phenyl)-imidazo[1,2-a]pyridin-3-ylmethyl]-2H-[1,2,4]triazole-3-carboxylic acid methyl ester] | ++ (percentage of inhibition of central BZD site binding is greater than 80% in the presence of 1000 nM of the compound)
13 | CCOC(=O)c1nccn1Cc1c(-c2ccc(Cl)cc2)nc2ccccn12 [Compound 26, Ethyl 1-((2-(4-chlorophenyl)H-imidazo[1,2-a]pyridin-3-yl)methyl)-1H-imidazole-2-carboxylate] | ++ (percentage of inhibition of central BZD site binding is greater than 80% in the presence of 1000 nM of the compound)
14 | CCOC(=O)c1cc(C)nn1Cc1c(-c2ccc(Cl)cc2)nc2ccccn12 [Compound 28, Ethyl 1-((2-(4-chlorophenyl)imidazo[1,2-a]pyridin-3-yl)methyl)-3-methyl-1H-pyrazole-5-carboxylate] | ++ (percentage of inhibition of central BZD site binding is greater than 80% in the presence of 1000 nM of the compound)
15 | CCOC(=O)c1cc(-c2ccco2)n(Cc2c(-c3ccc(Cl)cc3)nc3ccccn23)n1 [Compound 30, Ethyl 1-((2-(4-chlorophenyl)imidazo[1,2-a]pyridin-3-yl)methyl)-5-(furan-2-yl)-1H-pyrazole-3-carboxylate] | + (percentage of inhibition of central BZD site binding is greater than 50% but less than 80% in the presence of 1000 nM of the compound)
16 | CCOC(=O)c1cc(-c2ccco2)nn1Cc1c(-c2ccc(Cl)cc2)nc2ccccn12 [Compound 31, Ethyl 1-((2-(4-chlorophenyl)imidazo[1,2-a]pyridin-3-yl)methyl)-3-(furan-2-yl)-1H-pyrazole-5-carboxylate] | + (percentage of inhibition of central BZD site binding is greater than 50% but less than 80% in the presence of 1000 nM of the compound)
17 | COC(=O)c1cc2occc2n1Cc1c(-c2ccc(Cl)cc2)nc2ccccn12 [Compound 33, Methyl 4-((2-(4-chlorophenyl)imidazo[1,2-a]pyridin-3-yl)methyl)-4H-furo[3,2-b]pyrrole-5-carboxylate] | ++ (percentage of inhibition of central BZD site binding is greater than 80% in the presence of 1000 nM of the compound)
18 | COC(=O)c1nn(Cc2c(-c3ccc(Cl)cc3)nc3ccccn23)c2ccccc12 [Compound 34, Methyl 1-((2-(4-chlorophenyl)imidazo[1,2-a]pyridin-3-yl)methyl)-1H-indazole-3-carboxylate] | + (percentage of inhibition of central BZD site binding is greater than 50% but less than 80% in the presence of 1000 nM of the compound)
19 | COC(=O)C1Cc2ccccc2N1Cc1c(-c2ccc(Cl)cc2)nc2ccccn12 (stereo not shown) [Compound 35, Methyl 1-((2-(4-chlorophenyl)imidazo[1,2-a]pyridin-3-yl)methyl)indoline-2-carboxylate] | + (percentage of inhibition of central BZD site binding is greater than 50% but less than 80% in the presence of 1000 nM of the compound)
20 | CNC(=O)c1nc2ccccc2n1Cc1c(-c2ccc(Cl)cc2)nc2ccccn12 [Compound 36, 1-((2-(4-chlorophenyl)imidazo[1,2-a]pyridin-3-yl)methyl)-N-methyl-1H-benzo[d]imidazole-2-carboxamide] | + (percentage of inhibition of central BZD site binding is greater than 50% but less than 80% in the presence of 1000 nM of the compound)
21 | CCOC(=O)c1cc2ccccc2n1Cc1c(-c2ccc(Cl)cc2)nc2ccccn12 [Compound 37, Ethyl 1-((2-(4-chlorophenyl)imidazo[1,2-a]pyridin-3-yl)methyl)-1H-indole-2-carboxylate] | − (percentage of inhibition of central BZD site binding is less than 50% in the presence of 1000 nM of the compound)
22 | COC(=O)c1cn(Cc2c(-c3ccc(Cl)cc3)nc3ccccn23)c2ccccc12 [Compound 38, Methyl 1-((2-(4-chlorophenyl)imidazo[1,2-a]pyridin-3-yl)methyl)-1H-indole-3-carboxylate] | ++ (percentage of inhibition of central BZD site binding is greater than 80% in the presence of 1000 nM of the compound)
23 | Clc1ccc(-c2nc3ccccn3c2Cn2cnnn2)cc1 [Compound 41, 3-((1H-tetrazol-1-yl)methyl)-2-(4-chlorophenyl)imidazo[1,2-a]pyridine] | ++ (percentage of inhibition of central BZD site binding is greater than 80% in the presence of 1000 nM of the compound)
24 | COC(=O)c1ncn(Cc2c(-c3ccccc3)nc3ccc(Cl)cn23)n1 [Compound 45, 1-(6-Chloro-2-phenyl-imidazo[1,2-a]pyridin-3-ylmethyl)-1H-[1,2,4]triazole-3-carboxylic acid methyl ester] | + (percentage of inhibition of central BZD site binding is greater than 50% but less than 80% in the presence of 1000 nM of the compound)
25 | Fc1ccc(-c2nc3ccccn3c2Cn2ccnn2)cc1 [Compound 48, 3-((1H-1,2,3-triazol-1-yl)methyl)-2-(4-fluorophenyl)H-imidazo[1,2-a]pyridine] | ++ (percentage of inhibition of central BZD site binding is greater than 80% in the presence of 1000 nM of the compound)
